Reference: patent US5527828A, “Spin trap nitronyl hindered phenols” (priority 1995, dated 1996)
Like-named read-outs stand apart in the source and are kept apart here.

Assays:
rat liver microsomes [1] = test: Inhibition of lipid peroxidation (LPO) initiated by tert-butoxyl radicals in rat liver microsomes, TBA test for MDA (Example 1); settings: for relative efficiency normalized to 1.0 for PBN: from IC50 data of Example 1; for IC50: read-out: Inhibitor Concentration of 50% Inhibition (IC50), RLM (I), LPO initiated by tert-butoxyl radicals, 37° C., one hour, pH 7.4, average of 5 experiments, interpolated, estimated or measured
rat liver microsomes [2] = tested on: rat liver microsomes
rat brain microsomes = test: Inhibition of LPO in rat brain microsomes, TBA test for MDA production (Example 3); assay type: biochemical; settings: for IC50: rat brain microsomes; for inhibition of LPO in these systems: conclusion in words on the data obtained
Procedure: Similar tests were performed with rat brain microsomes using the TBA test for MDA production as the result of LPO.

rat liver microsomes [3] = settings: read-out: Inhibitor Concentration of 50% Inhibition (IC50); RLM (II); LPO initiated by NADPH/cytochrome-P450 metabolism of CCl4; average of 5 experiments; interpolated
[4] = value in parentheses, read-out: IC50 RBM (III)

Structure (SMILES) | IC50 (rat liver microsomes [2]) [µM] | IC50 (rat brain microsomes; RBM (III), TBA test for MDA) [µM] | IC50 (rat brain microsomes; [4]) [µM] | IC50 (rat liver microsomes [3]) [µM] | relative efficiency normalized to 1.0 for PBN (rat liver microsomes [1]; rat liver microsomes) | IC50 (rat liver microsomes [1]) [µM] | effectiveness as inhibitor of LPO compared with BHT (rat liver microsomes [1]; conclusion in words, taking into account experimental precision) | better than BHT as an inhibitor of LPO (rat liver microsomes [1]; rat liver microsomes, versus BHT) | times more effective as an inhibitor of LPO than PBN (rat liver microsomes [1]; rat liver microsomes, versus PBN) | inhibition of LPO in these systems (rat brain microsomes)
Cc1cc(C(C)(C)C)c(O)c(C(C)(C)C)c1 [BHT, butylated hydroxy toulene, reference compound] | 55 | – | – | – | 2000 | 5.3 | – | – | – | –
Cc1cc(C=[N+]([O-])C(C)(C)C)cc(C)c1O [DMBNP, 2,6-dimethyl-4-(N-tert-butyl) nitronyl phenol] | – | 600 | – | 710 | 46 | 230 | – | – | – | –
CC(C)(C)CC(C)(C)[N+]([O-])=Cc1ccccc1 [OPN, N-tert-octyl C-phenyl nitrone] | – | 76 | – | 6500 | 24 | 462 | – | – | – | –
CC(C)(C)[N+]([O-])=Cc1ccccc1 [PBN, α-phenyl t-butyl nitrone, reference compound] | – | 1000 | – | 17500 | 1.0 | 9800 | – | – | – | –
Cc1c(C)c2c(c(C)c1O)CCC(C)(CCCC(C)CCCC(C)CCCC(C)C)O2 (stereo not drawn) [Tocopherol, α-tocopherol, reference compound] | – | – | – | – | 354 | 30 | – | – | – | –

Further lines, with some results ahead:

IC50 (rat liver microsomes [2]) [µM] | IC50 (rat brain microsomes; RBM (III), TBA test for MDA) [µM] | IC50 (rat brain microsomes; [4]) [µM] | IC50 (rat liver microsomes [3]) [µM] | Structure (SMILES) | relative efficiency normalized to 1.0 for PBN (rat liver microsomes [1]; rat liver microsomes) | IC50 (rat liver microsomes [1]) [µM] | effectiveness as inhibitor of LPO compared with BHT (rat liver microsomes [1]; conclusion in words, taking into account experimental precision) | better than BHT as an inhibitor of LPO (rat liver microsomes [1]; rat liver microsomes, versus BHT) | times more effective as an inhibitor of LPO than PBN (rat liver microsomes [1]; rat liver microsomes, versus PBN) | inhibition of LPO in these systems (rat brain microsomes)
– | 0.7 | 0.7 | 53 | CC(C)(C)c1cc(C=[N+]([O-])C(C)(C)C)cc(C(C)(C)C)c1O [DBBNP, 2,6-di-tert-butyl-4-(N-tert-butyl) nitronyl phenol] | 2466 | 4.3 | at least as good as BHT and probably better | about 20% | about 2000 times | very good inhibitors
– | 0.3 | 0.3 | 35 | CC(C)(C)CC(C)(C)[N+]([O-])=Cc1cc(C(C)(C)C)c(O)c(C(C)(C)C)c1 [DBONP, 2,6-di-tert-butyl-4-(N-tert-octyl) nitronyl phenol] | 1828 | 5.8 | – | – | – | very good inhibitors
– | 70 | – | 60 | Cc1cc(C=[N+]([O-])C(C)(C)CC(C)(C)C)cc(C)c1O [DMONP, 2,6-dimethyl-4-(N-tert-octyl) nitronyl phenol] | 646 | 16.4 | – | – | – | –
